Results from the NIST ThermoML archive (doi:10.1021/je200673a).

Experiment: molar heat capacity at constant pressure
Settings: 101.33 kPa, Vacuum adiabatic calorimetry

C(#Cc1ccccc1)c1ccccc1 [1,2-diphenylethyne]
molar heat capacity at constant pressure [J/K/mol]
Settings | Crystal | Liquid
223.62 K | 167.21 | –
224.96 K | 168.09 | –
226.3 K | 169.06 | –
227.64 K | 170.12 | –
228.97 K | 171 | –
230 K | 171.85 | –
230.31 K | 171.96 | –
231.65 K | 173.01 | –
232.99 K | 173.91 | –
234.32 K | 174.98 | –
235.65 K | 175.95 | –
236.99 K | 176.85 | –
238.33 K | 177.98 | –
239.66 K | 179.01 | –
240 K | 179.11 | –
240.99 K | 179.99 | –
242.32 K | 180.88 | –
243.73 K | 181.99 | –
245.07 K | 182.85 | –
246.4 K | 183.79 | –
247.73 K | 184.64 | –
249.06 K | 185.75 | –
250 K | 186.45 | –
250.39 K | 185.54 | –
251.71 K | 187.74 | –
253.03 K | 188.91 | –
254.36 K | 189.53 | –
255.68 K | 190.6 | –
257 K | 191.87 | –
258.32 K | 192.68 | –
259.65 K | 193.82 | –
260 K | 193.93 | –
260.97 K | 194.81 | –
262.28 K | 195.65 | –
263.6 K | 197.01 | –
264.98 K | 198.01 | –
266.3 K | 198.7 | –
267.61 K | 199.72 | –
268.93 K | 200.72 | –
270 K | 201.56 | –
270.24 K | 201.85 | –
271.55 K | 202.64 | –
272.86 K | 203.72 | –
274.17 K | 204.75 | –
275.47 K | 205.78 | –
276.77 K | 206.87 | –
278.07 K | 207.63 | –
279.37 K | 208.98 | –
280 K | 209.29 | –
280.67 K | 209.89 | –
281.97 K | 210.65 | –
283.26 K | 211.51 | –
284.56 K | 212.46 | –
285.9 K | 213.85 | –
287.2 K | 214.7 | –
288.49 K | 216.02 | –
289.78 K | 216.96 | –
290 K | 216.99 | –
291.06 K | 217.78 | –
292.34 K | 219.03 | –
293.62 K | 219.44 | –
294.9 K | 220.27 | –
296.17 K | 221.66 | –
297.45 K | 223.35 | –
298.15 K | 223.14 | –
298.72 K | 223.61 | –
299.98 K | 224.36 | –
300 K | 224.51 | –
301.47 K | 225.51 | –
303.12 K | 227.1 | –
304.78 K | 228.38 | –
306.45 K | 228.99 | –
308.12 K | 230.51 | –
309.79 K | 231.08 | –
310 K | 231.76 | –
311.46 K | 232.91 | –
313.14 K | 234.02 | –
314.83 K | 234.92 | –
316.52 K | 236.14 | –
318.22 K | 238.29 | –
319.93 K | 238.52 | –
320 K | 238.87 | –
321.63 K | 240.17 | –
323.34 K | 241.21 | –
325.06 K | 242.48 | –
330 K | 245.96 | –
332.03 K | 247.4 | 302
340 K | – | 303.79
348.64 K | – | 304.58
348.68 K | – | 305.37
350 K | – | 306.04
350.47 K | – | 306.11
350.59 K | – | 307.42
352.28 K | – | 307.07
352.61 K | – | 306.03
354.1 K | – | 304.34
354.59 K | – | 307.75
355.9 K | – | 307.73
356.6 K | – | 308.43
357.73 K | – | 308.85
358.63 K | – | 305.76
359.56 K | – | 309.14
360 K | – | 308.41
360.65 K | – | 308.73
361.57 K | – | 306.43
362.7 K | – | 310.22
363.41 K | – | 309.69
364.77 K | – | 310.47
365.26 K | – | 310.84
367.13 K | – | 305.78
367.19 K | – | 311.76
369.03 K | – | 310.48
369.32 K | – | 308.58
370 K | – | 309.93
370.91 K | – | 308.47
371.44 K | – | 311.8
